Assay results published in ChEMBL document CHEMBL1201862, “PubChem BioAssay data set” (2004).
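In this assay, cells in 96-well plates receive the compound at five concentrations for 48 hours. Endpoints are linearly interpolated between the surrounding concentrations. GI50 = concentration required for 50% inhibition of growth.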 The source made the active and inactive calls. Cut-off read from the data, not from the text of the source: active = GI50 up to about 1.1 µM and inactive = higher.

Legend:
Assay in all cases: NCI tumour cell line growth inhibition, 48 h
[1] = system: PC-3
[2] = system: M14
[3] = system: SNB-75
[4] = system: HL-60
[5] = system: KM12
[6] = system: COLO 205
[7] = system: RXF 393
[8] = system: NCI-H226
[9] = system: U-251
[10] = system: UACC-257
[11] = system: OVCAR-3
[12] = system: 786-0
[13] = system: ACHN
[14] = system: EKVX
[15] = system: HCC 2998
[16] = system: UACC-62
[17] = system: SR
[18] = system: BT-549
[19] = system: MDA-MB-231
[20] = system: K562
[21] = system: SK-OV-3
[22] = system: SW-620
[23] = system: OVCAR-4
[24] = system: HCT-116
[25] = system: CCRF-CEM
[26] = system: SK-MEL-2
[27] = system: MCF7
[28] = system: DU-145
[29] = system: T47D
[30] = system: HT-29
[31] = system: SK-MEL-28
[32] = system: TK-10
[33] = system: NCI-H460
[34] = system: HCT-15
[35] = system: MDA-MB-435
[36] = system: MOLT-4
[37] = system: CAKI-1
[38] = system: OVCAR-8
[39] = system: NCI/ADR-RES
[40] = system: OVCAR-5
[41] = system: RPMI-8226
[42] = system: SF-295
[43] = system: HOP-62
[44] = system: SN12C
[45] = system: LOX IMVI
[46] = system: SF-539
[47] = system: NCI-H522
[48] = system: SF-268
[49] = system: UO-31
[50] = system: A549
[51] = system: SK-MEL-5
[52] = system: IGROV-1
[53] = system: NCI-H23
[54] = system: A498
[55] = system: Hs-578T
[56] = system: SNB-19
[57] = system: HOP-92
[58] = system: Malme-3M
[59] = system: MDA-N

Measured: GI50

N#CI1OC(=O)c2ccccc21
37.2 µM: [34]
inactive: [1] > 100 µM | [2] > 100 µM | [3] > 100 µM | [4] 59.6 µM | [5] > 100 µM | [6] > 100 µM | [7] > 100 µM | [8] > 100 µM | [9] > 100 µM | [10] > 100 µM | [11] > 100 µM | [12] > 100 µM | [13] > 100 µM | [14] > 100 µM | [15] > 100 µM | [16] > 100 µM | [17] 23.6 µM | [18] 91.2 µM | [19] > 100 µM | [20] 39.8 µM | [21] > 100 µM | [22] > 100 µM | [23] > 100 µM | [24] > 100 µM | [25] 2.83 µM | [26] > 100 µM | [27] 60.7 µM | [28] > 100 µM | [29] > 100 µM | [30] > 100 µM | [31] 92 µM | [32] > 100 µM | [33] > 100 µM | [35] > 100 µM | [36] 92.9 µM | [37] 40.7 µM | [38] > 100 µM | [39] > 100 µM | [40] > 100 µM | [41] 38.5 µM | [42] > 100 µM | [43] > 100 µM | [44] > 100 µM | [45] > 100 µM | [46] > 100 µM | [47] 18.2 µM | [48] > 100 µM | [49] > 100 µM | [50] > 100 µM | [51] > 100 µM | [52] > 100 µM | [53] > 100 µM | [54] > 100 µM

Cc1oc2nc(N(C)C)n3c(C)nnc3c2c1C
inactive: [2] > 100 µM | [3] > 100 µM | [5] > 100 µM | [6] > 100 µM | [7] > 100 µM | [8] > 100 µM | [9] > 100 µM | [10] > 100 µM | [12] > 100 µM | [55] > 100 µM | [13] > 100 µM | [14] > 100 µM | [15] > 100 µM | [16] > 100 µM | [17] > 100 µM | [18] > 100 µM | [19] > 100 µM | [20] > 100 µM | [21] > 100 µM | [22] > 100 µM | [23] > 100 µM | [24] > 100 µM | [25] > 100 µM | [27] > 100 µM | [28] > 100 µM | [29] > 100 µM | [30] > 100 µM | [31] > 100 µM | [32] > 100 µM | [35] > 100 µM | [36] > 100 µM | [37] > 100 µM | [38] > 100 µM | [39] > 100 µM | [40] > 100 µM | [41] > 100 µM | [42] > 100 µM | [56] > 100 µM | [44] > 100 µM | [45] > 100 µM | [57] > 100 µM | [46] > 100 µM | [47] > 100 µM | [48] > 100 µM | [49] > 100 µM | [50] > 100 µM | [51] > 100 µM | [52] > 100 µM | [53] > 100 µM | [54] > 100 µM
> 100 µM: [34]

Cc1ccccc1Nc1cn(CCOc2ccccc2)c(=O)n(CCOc2ccccc2)c1=O
inactive: [1] > 100 µM | [2] > 100 µM | [4] > 100 µM | [5] > 100 µM | [6] 96.2 µM | [7] > 100 µM | [58] 3.33 µM | [9] > 100 µM | [10] > 100 µM | [11] > 100 µM | [12] > 100 µM | [55] > 100 µM | [13] > 100 µM | [14] > 100 µM | [15] > 100 µM | [16] > 100 µM | [18] > 100 µM | [20] > 100 µM | [22] > 100 µM | [23] 58.7 µM | [24] > 100 µM | [25] > 100 µM | [27] 90.8 µM | [28] > 100 µM | [30] > 100 µM | [31] > 100 µM | [33] > 100 µM | [35] > 100 µM | [36] > 100 µM | [37] > 100 µM | [39] > 100 µM | [40] > 100 µM | [41] > 100 µM | [42] > 100 µM | [56] > 10 µM | [43] 24.6 µM | [44] > 100 µM | [45] > 100 µM | [57] 19 µM | [47] 12.5 µM | [48] > 100 µM | [59] > 100 µM | [49] > 100 µM | [50] > 100 µM | [51] > 100 µM | [52] > 100 µM | [53] > 100 µM | [54] > 100 µM
> 100 µM: [34]
